Assay results taken from US12403184B2, “Compositions and methods for treating neurodegenerative disroders” (priority 2018, dated 2025).
Where no end group is shown, it is not given here.

Legend:
Drp1 = Drp1 mitochondrial level and Drp1 polymerization by western blot in HD mouse striatal cells; type: cell-based
Experimental: Cells were washed with cold phosphate-buffered saline (PBS) and incubated on ice in mitochondrial lysis buffer (250 mM sucrose, 20 mM HEPES-NaOH, pH 7.5, 10 mM KCl, 1.5 mM MgCl2, 1 mM EDTA, 1 mM EGTA, protease inhibitor cocktail, and phosphatase inhibitor cocktail) for 30 min. The cells were scraped and then disrupted 15 times by repeated aspiration through a 25-gauge needle. Mouse brains were minced and homogenized in mitochondrial lysis buffer to release mitochondria. The homogenates were spun at 800×g for 10 min at 4° C., and the resulting supernatants were spun at 12,000×g for 20 min at 4° C. The pellets were washed with lysis buffer and spun at 12,000×g again for 20 min at 4° C. The final pellets were suspended in lysis buffer containing 1% Triton X-100 and were mitochondrial-rich lysate fractions. The mitochondrial protein voltage-dependent anion channel (VDAC) was used as a loading control.
Protein concentration was measured by protein assay dye reagents (Bio-rad). The protein was resuspended in Laemmli buffer, loaded on SDS-PAGE, and transferred onto nitrocellulose membranes. Membranes were probed with the indicated antibodies, followed by visualization with ECL. Representative blots have been cropped for presentation.

wildtype mice = assay: Tolerability of DA1 treatment in wildtype mice; type: in vivo, mouse
Experimental: Systemic peptide treatment in HD mice. All randomization and peptide treatments were prepared by an experimenter not associated with behavioral and neuropathology analysis. […] […] The pump was replaced once every month.
The body weight and survival rate of HD mice and wild-type littermates were recorded throughout the study period.

GST-Drp1 and ATAD3A-Flag = target: T1, GST-Drp1 and ATAD3A-Flag (Homo sapiens, UniProt Q9NVI7); assay: GST pulldown assay, in vitro binding of GST-Drp1 and ATAD3A-Flag; conditions: GST pull down, peptide 60 μM
T1 construct: Abnova for GST-Drp1 L1170 (TNT kit); no catalogue number printed for GST-Drp1; host or cells: cell-free coupled transcription/translation (ATAD3A-Flag); GST-Drp1 purchased
T1 sequence (Q9NVI7 1-586): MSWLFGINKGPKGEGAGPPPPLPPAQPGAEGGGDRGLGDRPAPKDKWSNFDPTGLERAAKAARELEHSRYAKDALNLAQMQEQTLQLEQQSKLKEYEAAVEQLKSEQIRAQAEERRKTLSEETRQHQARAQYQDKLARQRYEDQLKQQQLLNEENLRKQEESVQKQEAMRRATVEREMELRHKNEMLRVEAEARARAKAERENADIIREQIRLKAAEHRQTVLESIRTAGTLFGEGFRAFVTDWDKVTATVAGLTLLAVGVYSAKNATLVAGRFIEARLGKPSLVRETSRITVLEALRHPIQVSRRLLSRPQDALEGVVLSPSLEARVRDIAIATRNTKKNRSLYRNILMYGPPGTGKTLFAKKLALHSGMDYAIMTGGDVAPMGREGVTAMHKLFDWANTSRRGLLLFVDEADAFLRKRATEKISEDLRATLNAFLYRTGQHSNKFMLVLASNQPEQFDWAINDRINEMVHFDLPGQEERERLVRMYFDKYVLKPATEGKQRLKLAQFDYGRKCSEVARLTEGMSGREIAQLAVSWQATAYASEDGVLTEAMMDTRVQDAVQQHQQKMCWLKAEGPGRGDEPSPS
Excerpt: Using pcDNA3.1 (+)-ATAD3A-Flag plasmid as template, ATAD3A-Flag protein was synthesized by TNT® Quick Coupled Transcription/Translation System (Promega, Cat #L1170) followed by protein purification with Flag-peptide (Sigma, F3290). The expression of ATAD3A protein was confirmed by western blot analysis with both anti-ATAD3A and anti-Flag antibodies. This approach provides convenient single-tube, coupled transcription/translation reactions for eukaryotic cell-free protein expression and has been used to detect direct protein-protein interaction.
GST-Drp1 or GST control protein were incubated with Glutathione-beads in TBST buffer at r.t. After 1 h of incubation, ATAD3A-Flag protein was added, and thoroughly mixed in vibrating mixer for 30 mins at r.t., then transferred to 4° C. for overnight incubation Immunoprecipitates were then washed for three time and analyzed by SDS-PAGE.
To test the inhibitory function of DA1 peptide on in vitro binding between GST-Drp1 and ATAD3A-Flag, DA1 peptide or control peptide TAT (60 μM, each) was incubated with ATAD3A-Flag protein before mixing with GST-Drp1-glutathione beads complex.

[1] = system: neurons derived from HD patients; assay: Cell death by LDH release in neurons derived from iPS cells; type: cell-based, human
Experimental: iPS cells from a normal subject and a HD patient (carrying 41 CAG repeats) were differentiated into neurons using the protocol from our previous studies. Briefly, the iPS cells were plated onto 6-well plates precoated with 2.5% Matrigel and allowed to reach 90% confluence in feeder-free medium. For the first 10 days, the cells were treated with SB431542 (10 μM; Tocris Bioscience) and Noggin (100 ng/ml) in Neural Media (NM) containing Neurobasal and DMEM (1:1), B-27 supplement minus vitamin A (50×, Invitrogen), N2 supplement (100×, Invitrogen), GlutaMax (Invitrogen, 100×), FGF2 ([…]) and EGF ([…]), and 100 units/ml penicillin and 100 μg/ml streptomycin). For the next 10 days, the cells were treated with human recombinant Sonic hedgehog (SHH, 200 ng/ml), DKK1 (100 ng/ml) and BDNF (20 ng/ml), and 10 μM Y27632 (Sigma) in neuronal differentiation medium containing Neurobasal and DMEM (1:3), B27, N2, GlutaMax, and PS. Cells were then switched to treatment with BDNF (20 ng/ml), ascorbic acid (200 μM, Sigma-Aldrich), cAMP (0.5 mM, Sigma-Aldrich), and Y27632 (10 μM) in neuronal differentiation medium. All growth factors were purchased from PeproTech (Rocky Hill, NJ, USA). […]
Cells were treated as described, and cell death was determined by using Cytotoxicity Detection Kit (LDH) according to protocols recommended by the manufacturer (Roche).

[2] = system: activated microglial cells; assay: Iba1 immunofluorescence of microglial activity in HD mouse striatum; type: in vivo
Experimental: For Iba1 immunofluorescence staining, mice were deeply anesthetized and transcardially perfused with 4% paraformaldehyde in PBS. Frozen brain sections (10 μm, coronal) were permeabilized with 0.1% Triton X-100 in TBS-T buffer followed by blocking with 5% normal goat serum. The brain sections were then incubated with anti-Iba1 antibody (1:500 dilution) for overnight at 4° C., followed by staining with Alex-488 anti-rabbit secondary antibody (1:2000 dilution). Iba1-immunopositive cells in the […] were quantitated by image J software.

[3] = 1 mg/kg/day for 30 days, Alzet mini pumps, vs saline

YGRKKRRQRRRGGEDKRKT-NH2 [DA1, YGRKKRRQRRR-GG-EDKRKT-NH2]
Drp1 polymerization (Drp1; HD mouse striatal cells): abrogated
Drp1 translocation to the mitochondria (Drp1; HD mouse striatal cells, 1 μM/day for 4 days): abrogated
inhibitory effect on Drp1 tetramer formation (Drp1; upon ATAD3A knockdown): abolished upon ATAD3A knockdown
lifespan (wildtype mice): no effect
relative weight (spleen/body weight) (wildtype mice; [3]): no effects
spleen morphology (wildtype mice; [3]): no effects
visible side effects in organs (wildtype mice; 1 mg/kg/day subcutaneously): did not cause
weight loss (wildtype mice; 1 mg/kg/day subcutaneously): did not cause
behavioral status (wildtype mice; sustained treatment): minor effects
binding of GST-Drp1 and ATAD3A-Flag in vitro (GST-Drp1 and ATAD3A-Flag): abolished
neuronal survival ([1]; cells derived from iPS cells of normal subject): no observed effects
cell death (LDH release) ([1]; neurons derived from HD patients, BDNF withdrawal for 24 h): decreased
inflammatory response (Iba1-marked activated microglial cells) ([2]; HD R6/2 mouse striatum, 12 weeks old): corrected
inflammatory response (Iba1-marked activated microglial cells) ([2]; YAC128 mouse striatum, 6 months old): corrected
